According to US20260053811A1, “METHODS OF TREATING HYPERTENSION IN OBESE SUBJECTS” (Mineralys Therapeutics, Inc., priority 2022, published 2026):

Test system: hypertensive subjects
Assay: Seated automated office blood pressure (AOBP) in randomized, placebo-controlled, dose-ranging study
Format: in vivo, human
Conditions: Part 1
Method: A randomized, double-blinded, placebo-controlled, dose-ranging, multicenter study was conducted to evaluate the effect of orally administered Compound A HBr on blood pressure for the treatment of hypertension in male and female subjects ≥18 years of age.
The study consists of two parts. For enrollment into Part 1 of the study, a subject's value of plasma renin activity (PRA) must be ≤1 ng/mL/h based on morning measurement. If the value of PRA >1 ng/mL/h based on morning measurement, then subjects may be eligible to enter Part 2 of the study.
For Part 1, 163 enrolled subjects ≥18 years of age were randomized into 6 equal treatment groups (1:1:1:1:1:1) to 12.5 mg BID, 25 mg BID, 12.5 mg QD, 50 mg QD, 100 mg QD, or placebo. After a review of interim clinical data, the 2 lowest dose levels (12.5 mg QD and 12.5 mg BID) were stopped for future randomization due to a lack of consistent meaningful reduction of blood pressure, but the patients randomized to that point remained in the study through completion. Thus, after the review of interim clinical data, subjects were randomized into 4 equal treatment groups (1:1:1:1) to 25 mg BID, 50 mg QD, 100 mg QD, or placebo.
For Part 2, 36 enrolled subjects ≥18 years of age were randomized (5:1) to either 100 mg QD Compound A HBr or placebo such that the Compound A HBr treatment group consisted of approximately 30 subjects and the placebo treatment group will consist of approximately 6 subjects.
Subjects orally administered the assigned study drug (Compound A HBr or placebo) according to the assigned dosing regimen for 8 weeks beginning on Study Day 1. All subjects in Part 1 (regardless of dosing group) received BID dosing to preserve the integrity of the blind; active drug is administered as the morning dose for all QD dose groups. Subjects returned to the research facility or were seen by the clinical investigator or approved home health care professional at the end of Study Weeks 1, 2, 3, 4, 5, 6, 7, and 8 (±2 days) for protocol-defined efficacy and safety assessments and procedures, assessment of adverse events (AEs), and confirmation of compliance with study drug usage. Subjects also completed a telephone visit and blood pressure (BP) check at home approximately 3 days post last dose of study drug. Subjects attended up to 14 full clinic visits, including a pre-Screening visit, a Screening/start of Placebo Run-in visit, a second visit during Placebo Run-in, a clinic visit to initiate the ABPM procedure, a Randomization visit, 8 weekly visits during double-blind treatment, and an end-of-study visit scheduled 4 weeks after the last study treatment for final efficacy and safety assessments.
An automated oscillometric sphygmomanometer device was used to measure the subjects' systolic and diastolic blood pressure in office after approximately 5 minutes of rest in the seated position.
The primary endpoint is the change in office-measured (mean of last 2 of 5 unattended measurements using an automated oscillometric sphygmomanometer device after approximately 5 minutes of rest in the seated position) systolic blood pressure (SBP) from baseline to the end of Study Week 8.
Secondary endpoints of this study were: • (a) Change in 24-hour ambulatory blood pressure monitoring (ABPM) parameters (systolic and diastolic) from baseline to the end of Study Week 7. • (b) Change in office-measured SBP from baseline to the end of Study Weeks 1, 2, 3, 4, 5, 6, and 7. • (c) Change in office-measured diastolic blood pressure (DBP) from baseline to the end of Study Weeks 1, 2, 3, 4, 5, 6, 7, and 8. • (d) Proportion of subjects who achieve office-measured BP of ≤130/80 mm Hg by the end of Study Week 8.

[1] = 12.5 mg BID, Seated SBP Tertile High
[2] = 12.5 mg BID, Seated SBP Tertile Middle
[3] = 12.5 mg BID, Systolic Blood Pressure Tertile at Baseline High
[4] = 12.5 mg BID, Systolic Blood Pressure Tertile at Baseline Low
[5] = 12.5 mg BID, Systolic Blood Pressure Tertile at Baseline Middle
[6] = 12.5 mg BID, Thiazide Diuretic Use at Baseline No
[7] = 12.5 mg BID, Thiazide Diuretic Use at Baseline Yes

CC(=O)N[C@H]1CC[C@H](NC(=O)CN2CCN(c3nncc(-c4ccc(C)cc4)n3)CC2)CC1 [Compound A HBr]
Mean (SD) Change from Baseline at Week 8 in Automated Office-Measured Diastolic Blood Pressure (12.5 mg BID, Race Black or AA): 0.21 (7.03) mmHg | Mean (SD) Change from Baseline at Week 8 in Automated Office-Measured Systolic Blood Pressure (12.5 mg BID, Race Black or AA): −7.43 (20.17) mmHg | Mean (SD) Automated Office-Measured Diastolic Blood Pressure at Wk 8 (12.5 mg BID, Race Other): 72.92 (10.54) mmHg | Mean (SD) Automated Office-Measured Systolic Blood Pressure at Wk 8 (12.5 mg BID, Race Other): 128.50 (11.84) mmHg | Mean (SD) Change from Baseline at Week 8 in Automated Office-Measured Diastolic Blood Pressure (12.5 mg BID, Race Other): −9.38 (7.89) mmHg | Mean (SD) Change from Baseline at Week 8 in Automated Office-Measured Systolic Blood Pressure (12.5 mg BID, Race Other): −17.50 (15.80) mmHg | Mean (SD) Automated Office-Measured Diastolic Blood Pressure at Wk 8 [1]: 74.86 (11.87) mmHg | Mean (SD) Change from Baseline at Week 8 in Automated Office-Measured Diastolic Blood Pressure [1]: −6.93 (7.79) mmHg | Mean (SD) Automated Office-Measured Diastolic Blood Pressure at Wk 8 (12.5 mg BID, Seated SBP Tertile Low): 78.50 (9.88) mmHg | Mean (SD) Automated Office-Measured Diastolic Blood Pressure at Wk 8 [2]: 73.88 (9.48) mmHg | Mean (SD) Change from Baseline at Week 8 in Automated Office-Measured Diastolic Blood Pressure [2]: −6.69 (10.60) mmHg | Mean (SD) Automated Office-Measured Diastolic Blood Pressure at Wk 8 (12.5 mg BID, Sex Female): 74.07 (10.32) mmHg | Mean (SD) Automated Office-Measured Systolic Blood Pressure at Wk 8 (12.5 mg BID, Sex Female): 131.00 (14.17) mmHg | Mean (SD) Change from Baseline at Week 8 in Automated Office-Measured Diastolic Blood Pressure (12.5 mg BID, Sex Female): −5.25 (9.78) mmHg | Mean (SD) Change from Baseline at Week 8 in Automated Office-Measured Systolic Blood Pressure (12.5 mg BID, Sex Female): −12.46 (18.69) mmHg | Mean (SD) Automated Office-Measured Systolic Blood Pressure at Wk 8 [3]: 131.86 (14.81) mmHg | Mean (SD) Change from Baseline at Week 8 in Automated Office-Measured Systolic Blood Pressure [3]: −24.93 (18.46) mmHg | Mean (SD) Automated Office-Measured Systolic Blood Pressure at Wk 8 [4]: 132.25 (10.34) mmHg | Mean (SD) Change from Baseline at Week 8 in Automated Office-Measured Systolic Blood Pressure [4]: −0.75 (5.48) mmHg | Mean (SD) Automated Office-Measured Systolic Blood Pressure at Wk 8 [5]: 131.75 (14.00) mmHg | Mean (SD) Change from Baseline at Week 8 in Automated Office-Measured Systolic Blood Pressure [5]: −10.56 (16.34) mmHg | Automated Office-Measured Diastolic Blood Pressure, Week 8, Mean (SD) [6]: 79.57 (10.75) mmHg | Mean (SD) Automated Office-Measured Systolic Blood Pressure at Wk 8 [6]: 139.29 (13.28) mmHg | Mean (SD) Change from Baseline at Week 8 in Automated Office-Measured Diastolic Blood Pressure [6]: −3.29 (8.80) mmHg | Mean (SD) Change from Baseline at Week 8 in Automated Office-Measured Systolic Blood Pressure [6]: −4.43 (15.93) mmHg | Automated Office-Measured Diastolic Blood Pressure, Week 8, Mean (SD) [7]: 72.67 (9.15) mmHg | Mean (SD) Automated Office-Measured Systolic Blood Pressure at Wk 8 [7]: 127.58 (11.07) mmHg | Mean (SD) Change from Baseline at Week 8 in Automated Office-Measured Diastolic Blood Pressure [7]: −7.33 (8.79) mmHg | Mean (SD) Change from Baseline at Week 8 in Automated Office-Measured Systolic Blood Pressure [7]: −19.25 (16.90) mmHg | Mean (SD) Automated Office-Measured Systolic Blood Pressure at Wk 8 (12.5 mg QD, ACEi/ARB No): 138.25 (20.45) mmHg | Mean (SD) Change from Baseline at Week 8 in Automated Office-Measured Systolic Blood Pressure (12.5 mg QD, ACEi/ARB No): −8.50 (31.61) mmHg | Mean (SD) Automated Office-Measured Systolic Blood Pressure at Wk 8 (12.5 mg QD, ACEi/ARB Yes): 141.50 (23.12) mmHg | Mean (SD) Change from Baseline at Week 8 in Automated Office-Measured Systolic Blood Pressure (12.5 mg QD, ACEi/ARB Yes): −6.39 (16.84) mmHg | Mean (SD) Automated Office-Measured Diastolic Blood Pressure at Wk 8 (12.5 mg QD, ACEi/ARBs No): 73.25 (13.50) mmHg | Mean (SD) Change from Baseline at Week 8 in Automated Office-Measured Diastolic Blood Pressure (12.5 mg QD, ACEi/ARBs No): −5.50 (11.85) mmHg | Mean (SD) Automated Office-Measured Diastolic Blood Pressure at Wk 8 (12.5 mg QD, ACEi/ARBs Yes): 83.79 (17.89) mmHg | Mean (SD) Change from Baseline at Week 8 in Automated Office-Measured Diastolic Blood Pressure (12.5 mg QD, ACEi/ARBs Yes): −0.71 (13.94) mmHg | Mean (SD) Automated Office-Measured Diastolic Blood Pressure at Wk 8 (12.5 mg QD, AHTs 2): 80.80 (18.35) mmHg | Mean (SD) Automated Office-Measured Systolic Blood Pressure at Wk 8 (12.5 mg QD, AHTs 2): 142.80 (25.41) mmHg | Mean (SD) Change from Baseline at Week 8 in Automated Office-Measured Diastolic Blood Pressure (12.5 mg QD, AHTs 2): −4.60 (10.04) mmHg | Mean (SD) Change from Baseline at Week 8 in Automated Office-Measured Systolic Blood Pressure (12.5 mg QD, AHTs 2): −9.70 (21.49) mmHg | Mean (SD) Automated Office-Measured Diastolic Blood Pressure at Wk 8 (12.5 mg QD, AHTs ≥3): 82.25 (16.96) mmHg | Mean (SD) Automated Office-Measured Systolic Blood Pressure at Wk 8 (12.5 mg QD, AHTs ≥3): 138.25 (18.26) mmHg | Mean (SD) Change from Baseline at Week 8 in Automated Office-Measured Diastolic Blood Pressure (12.5 mg QD, AHTs ≥3): 1.75 (16.61) mmHg | Mean (SD) Change from Baseline at Week 8 in Automated Office-Measured Systolic Blood Pressure (12.5 mg QD, AHTs ≥3): −3.31 (18.37) mmHg | Mean (SD) Automated Office-Measured Diastolic Blood Pressure at Wk 8 (12.5 mg QD, Age 65-79 yr): 77.25 (5.52) mmHg
